One assay concerns the target T1, human CXCR4 (Homo sapiens, UniProt P61073).
T1 construct: expressed in transfected cells
Description: CXCL12-induced calcium mobilization assay, U87.CD4 cells expressing CXCR4. It is filed as cell-based. The settings on record: for effect on CXCR4 mediated calcium response: result in words. As for the experimental part: U87.CD4 cells that stably express either human CCR7, CXCR2, CCR5 or CXCR4 were seeded (20,000 cells/well) in gelatin-coated black-walled polystyrene 96-well plates with clear bottom and incubated overnight at 37°C and 5% CO2. The next day, a fluorescent Ca^2+-sensitive dye solution (Fluo-2 AM) was prepared as described before ([Claes et al., 2018]). Culture medium was removed, and cells were incubated for 45 min at room temperature in the dark. Meanwhile, 96-well polypropylene plates containing 5-fold concentrated compound dilutions and 5-fold concentrated solution of chemokine ligands (CCL19, CXCL8, LD78-β, CXCL12, respectively; all purchased from PeproTech) were prepared for use with the FLIPR Tetra device (Molecular Devices) as described before ([Claes et al., 2018]). The antagonistic properties of the compounds were calculated based on their capacity to inhibit the Ca^2+ release induced by a fixed concentration of chemokine (i.e. 50 ng/mL final concentration for CCL19, CXCL8 and CXCL12 and 100 ng/ml for LD78-β), as described ([Claes et al., 2018]). Exactly the same protocol was used to record calcium responses in Chinese hamster ovary (CHO)-K1 cells, upon stimulation with adenosine triphosphate (ATP, purchased from Sigma).
On the technique in general: Calcium flux is commonly read through the fluorescence of an indicator in the cells.

A further assay addresses T2, human CCR5 (Homo sapiens, UniProt P51681).
T2 construct: expressed in transfected cells
The experiment in a line: cell-based. The procedure: (§1) U87.CD4 cells that stably express either human CCR7, CXCR2, CCR5 or CXCR4 were seeded (20,000 cells/well) in gelatin-coated black-walled polystyrene 96-well plates with clear bottom and incubated overnight at 37°C and 5% CO2. […] Culture medium was removed, and cells were incubated for 45 min at room temperature in the dark. […] Exactly the same protocol was used to record calcium responses in Chinese hamster ovary (CHO)-K1 cells, upon stimulation with adenosine triphosphate (ATP, purchased from Sigma).

For assay [1], the target named is T3, human CCR7 (Homo sapiens, UniProt P32248).
T3 construct: expressed in transfected cells
T3 sequence (P32248 25-378): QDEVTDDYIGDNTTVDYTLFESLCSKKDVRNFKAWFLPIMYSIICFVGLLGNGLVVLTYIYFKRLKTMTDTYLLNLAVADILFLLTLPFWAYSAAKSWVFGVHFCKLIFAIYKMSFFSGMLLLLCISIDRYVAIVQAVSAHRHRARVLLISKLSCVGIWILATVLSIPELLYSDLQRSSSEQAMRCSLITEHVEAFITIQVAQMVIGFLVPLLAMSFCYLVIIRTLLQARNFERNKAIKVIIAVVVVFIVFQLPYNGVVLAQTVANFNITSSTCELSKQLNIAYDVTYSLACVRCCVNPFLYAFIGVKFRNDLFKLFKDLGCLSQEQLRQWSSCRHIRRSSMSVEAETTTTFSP
Description: CCR7 competition binding assay with CCL19^AF647 (flow cytometry, whole cells). The following applies: for IC50: inhibition of CCL19^AF647 binding, Mean ± SD of four independent experiments; for inhibition of CCL19^AF647 binding / CCR7 affinity: result in words. The procedure:
In brief, U87.CD4.CCR7 cells were pre-incubated with compound (at different concentrations) in 150 μL assay buffer [Hank’s balanced salt solution (HBSS), 20 mM HEPES and 0.5% Fetal Calf Serum] for 15 min at room temperature (RT) in the dark. Afterwards, 50 μL of CCL19^AF647 was added (25 ng/mL final concentration) and samples were incubated for another 30 min at RT, protected from light. Then, cells were washed twice with assay buffer and fixed in 1% paraformaldehyde in Dulbecco’s phosphate-buffered saline (DPBS).
Samples were immediately analyzed by flow cytometry (FACS Canto II, BD). Data were analysed using Flowjo. The percentage inhibition of CCL19^AF647 binding was calculated according to formula {1—[(MFIX–MFINC)/(MFIPC–MFINC)]} x 100, where MFIX is the mean fluorescence intensity (MFI) of the compound-treated sample, MFINC the MFI of the negative control (i.e., autofluorescence of untreated and unlabeled cells) and MFIPC the MFI of the positive control (i.e., cells exposed to CCL19^AF647 only). […] For each experiment the stain index (SI) was calculated as the ratio of the separation between MFIPC and MFINC, divided by two times the standard deviation of MFINC.
(In general: In flow cytometry, cells or beads pass a laser one at a time.)

Assay [2] concerns the target T3, human CCR7. The experiment in a line: CCL19-induced calcium mobilization assay, U87.CD4 cells expressing CCR7. The format is cell-based. The settings on record: for CCR7 antagonism in calcium mobilization assay: CCL19-induced, result in words; for Decoy – 0 Active – 1: classification of tested compounds as decoy or active. The method in brief: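 Calcium mobilization was recorded in U87.CD4 cells stably carrying human CXCR2 (stimulated with CXCL8), CCR7 (stimulated with CCL19) or CCR5. Cells were plated at 20,000 cells/well, cultured overnight at 37°C in 5% CO2, and incubated 45 min at room temperature in the dark before reading.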

In a further assay the test system is CCR7. More on the design: method as in Jaeger et al., 2019. The settings on record: result in words; ref Jaeger et al., 2019; cited from earlier work.
Another assay deals with T4, human CXCR2 (Homo sapiens, UniProt P25025).
T4 construct: expressed in transfected cells
T4 sequence (P25025 1-360): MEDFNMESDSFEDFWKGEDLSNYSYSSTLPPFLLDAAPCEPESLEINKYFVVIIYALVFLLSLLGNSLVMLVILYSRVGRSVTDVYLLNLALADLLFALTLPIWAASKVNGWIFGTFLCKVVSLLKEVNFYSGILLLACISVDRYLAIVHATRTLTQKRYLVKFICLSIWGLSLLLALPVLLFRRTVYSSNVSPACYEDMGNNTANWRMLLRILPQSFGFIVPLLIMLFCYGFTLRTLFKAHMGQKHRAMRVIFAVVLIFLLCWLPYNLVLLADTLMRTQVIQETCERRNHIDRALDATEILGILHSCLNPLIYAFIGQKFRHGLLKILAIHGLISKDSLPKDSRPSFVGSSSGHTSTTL
The experiment in a line: CXCL8-induced calcium mobilization assay, U87.CD4 cells expressing CXCR2. It is filed as cell-based. As for the experimental part: as §1

A further assay deals with human or murine CCR7. More on the design: method as in Hull-Ryde et al., 2018. The settings on record: ref Hull-Ryde et al., 2018, cited from earlier work; for IC50: read-out: IC50, β-arrestin recruitment. (In general: Recruitment of arrestin is a read-out of receptor activation apart from second messengers.)
The subject of assay [3] is ATP-induced Ca2+ release in CHO-K1 cells. Description: ATP-induced calcium response in CHO-K1 cells. The settings on record: ATP 10 µM final concentration, Fluo-2.
Description: Using CHO-K1 cells, exactly the same experimental set-up as for the chemokine receptor expressing U87 cells was applied, essentially including the same fluorescent calcium dye (Fluo-2) for cell loading.

Where two headings read alike, the source gives them in different places. Where only a bound is given, the exact number is not on record here.

As a reminder, the IC50 is the concentration needed to halve the response being measured.

T1 sequence (P61073 whole entry): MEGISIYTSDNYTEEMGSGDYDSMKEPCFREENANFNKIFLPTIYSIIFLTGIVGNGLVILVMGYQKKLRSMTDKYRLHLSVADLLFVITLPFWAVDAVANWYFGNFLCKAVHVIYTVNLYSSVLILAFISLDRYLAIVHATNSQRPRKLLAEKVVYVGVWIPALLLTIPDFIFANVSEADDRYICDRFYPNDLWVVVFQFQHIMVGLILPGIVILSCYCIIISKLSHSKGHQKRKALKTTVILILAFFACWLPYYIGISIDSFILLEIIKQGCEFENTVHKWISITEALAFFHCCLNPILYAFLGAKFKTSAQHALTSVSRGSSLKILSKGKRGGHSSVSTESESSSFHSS
T2 sequence (P51681 whole entry): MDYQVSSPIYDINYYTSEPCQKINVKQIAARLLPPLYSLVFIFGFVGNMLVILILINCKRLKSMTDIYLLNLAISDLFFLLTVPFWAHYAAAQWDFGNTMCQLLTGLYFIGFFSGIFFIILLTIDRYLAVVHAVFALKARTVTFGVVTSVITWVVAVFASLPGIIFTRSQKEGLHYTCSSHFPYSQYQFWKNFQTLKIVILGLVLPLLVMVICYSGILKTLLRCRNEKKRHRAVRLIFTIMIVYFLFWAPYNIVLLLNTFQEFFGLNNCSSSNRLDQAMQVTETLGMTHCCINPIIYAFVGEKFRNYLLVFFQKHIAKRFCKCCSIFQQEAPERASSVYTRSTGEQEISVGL

As to `CC[C@@H](Nc1c(Nc2cccc(C(=O)N(C)C)c2O)c(=O)c1=O)c1ccc(C)o1` [Navarixin], the “effect on CXCR4 mediated calcium response” value on human CXCR4 is reported as “no (or only very limited) effect”. In addition, on human CCR5 (result in words), the “effect on CCR5 mediated calcium response” value is reported as “no (or only very limited) effect”.

For `CCOC(=O)N1CCC(Nc2c(NCCOC)c(=O)c2=O)CC1` [CS-3, Ethyl 4-((2-((2-methoxyethyl)amino)-3,4-dioxocyclobut-1-en-1-yl)amino)piperidine-1-carboxylate, reference compound], at human CCR7 [1], the IC50 is more than 50 µM and the “inhibition of CCL19^AF647 binding / CCR7 affinity” value is on record as “did not show any CCR7 affinity”. Besides, at human CCR7 [2], the IC50 is more than 50 µM, the “CCR7 antagonism in calcium mobilization assay” value was “inactive” and the “Decoy – 0 Active – 1” value worked out at 0. For the same compound, in the assay with CCR7, the “thermal stabilization of CCR7” value is “hits in the thermofluor stability assay, albeit less potent than cmp2105 and navarixin”.

Turning to `Cc1ccc([C@@H](NC2=NS(=O)(=O)N=C2Nc2ccc(C)c(C(=O)N(C)C)c2O)C(C)(C)C)o1` [Cmp2105, reference compound], at human CXCR2 (result in words), the “inhibition of CXCR2 mediated calcium mobilization” value was “inhibited”. Also, the “effect on CXCR4 mediated calcium response” value on human CXCR4 was “no (or only very limited) effect”.

For `COCCNc1c(Nc2cccc(C#N)c2)c(=O)c1=O` [CS-2, 3-((2-((2-Methoxyethyl)amino)-3,4-dioxocyclobut-1-en-1-yl)amino)benzonitrile, reference compound], at human CCR7 [1], the IC50 is more than 50 µM and the “inhibition of CCL19^AF647 binding / CCR7 affinity” value is recorded as “did not show any CCR7 affinity”. At human CCR7 [2], the IC50 was more than 50 µM, the “CCR7 antagonism in calcium mobilization assay” value is “inactive” and the “Decoy – 0 Active – 1” value turned out to be 0. In addition, the “thermal stabilization of CCR7” value in the assay on CCR7 is “hits in the thermofluor stability assay, albeit less potent than cmp2105 and navarixin”.

For `CC(C)CCC[C@@H](C)[C@H]1CC[C@H]2[C@@H]3CC[C@H]4C[C@@H](CCC=C(c5cc(Cl)c(O)c(C(=O)O)c5)c5cc(Cl)c(O)c(C(=O)O)c5)CC[C@]4(C)[C@H]3CC[C@]12C` [cosalane], the IC50 in the assay on human or murine CCR7 (CCL19 used as the natural CCR7 ligand) was 0.2 µM; in the assay on human or murine CCR7 (CCL21 used as the agonist), 2.7 µM. The “activity against human versus murine CCR7” value with human or murine CCR7 (result in words) is “nearly identical activity against the human and murine CCR7 orthologues”.

As to `FC(F)(F)c1cc(NC(=S)Nc2cc(C(F)(F)F)cc(C(F)(F)F)c2)cc(C(F)(F)F)c1` [C040, S=C(NC1=CC(C(F)(F)F)=CC(C(F)(F)F)=C1)NC2=CC(C(F)(F)F)=CC(C(F)(F)F)=C2], the “activity in CCR7 competition binding assay” value on human CCR7 [1] (highest concentration tested (25 µM)) was “inactive”. On human CCR7 [1], the “inhibition of CCL19^AF647 binding / CCR7 affinity” value was “completely devoid of activity”. For the same compound, the “IC50 [μM] block CCL19 induced calcium signaling” value on human CCR7 [2] (CCL19-induced calcium signaling) was “assay interference”. The IC50 on human CCR7 [2] (inhibition of CCL19 induced intracellular calcium flux, Mean ± SD of at least three independent experiments, read-out: Calcium assay IC50) fell in the range of 3 to 18 µM; on human CXCR2 (Mean ± SD of at least three independent experiments, read-out: IC50, CXCL8-CXCR2 Ca2+ response), 3 to 18 µM; on human CXCR4 (Mean ± SD of at least three independent experiments, read-out: IC50, CXCL12-CXCR4 Ca2+ response), 3 to 18 µM; at human CCR5 (Mean ± SD of at least three independent experiments, read-out: IC50, LD78-β-CCR5 Ca2+ response) it was 3 to 18 µM. Moreover, the “inhibition of calcium response induced by ATP” value in assay [3] is recorded as “dose-dependently inhibit”.
